From ChEMBL document CHEMBL4190345, “Synthesis and biological evaluation of new substituted thioglycolurils, their analogues and derivatives” (Eur J Med Chem, 2017) come the findings set out here.

One may read the IC50 as the point on the concentration scale where inhibition reaches its midpoint.

The subject of one experiment is Rhizoctonia solani. As to the kind of experiment: Fungicidal activity against Rhizoctonia solani grown under potato-saccharose agar assessed as inhibition of mycelial radial growth at 30 mg/l incubated for 72 hrs. The experiment is classed as functional. As to conditions: read-out: GI; call rule not given here.
Another experiment deals with Bipolaris sorokiniana. As to the kind of experiment: Fungicidal activity against Bipolaris sorokiniana grown under potato-saccharose agar assessed as inhibition of mycelial radial growth at 30 mg/l incubated for 72 hrs. It is filed as functional. To be noted: read-out: GI.
In the next experiment the test system is HEK293. As to the kind of experiment: Cytotoxicity in human HEK293 cells assessed as inhibition of cell growth incubated for 72 hrs by MTT assay. The experiment is classed as cell-based.
In the next experiment the test system is A549. As to the kind of experiment: Cytotoxicity in human A549 cells assessed as inhibition of cell growth incubated for 72 hrs by MTT assay. It is filed as functional, cell-based. To be noted: A549, 72 h. Background: Tetrazolium dyes change colour on reduction, which living cells bring about.
The next experiment deals with Fusarium oxysporum. As to the kind of experiment: Fungicidal activity against Fusarium oxysporum grown under potato-saccharose agar assessed as inhibition of mycelial radial growth at 30 mg/l incubated for 72 hrs. The experiment is classed as functional. To be noted: read-out: GI.
Another experiment concerns Fusarium verticillioides. As to the kind of experiment: Fungicidal activity against Fusarium moniliforme grown under potato-saccharose agar assessed as inhibition of mycelial radial growth at 30 mg/l incubated for 72 hrs. The experiment is classed as functional. As to conditions: read-out: GI.
Experiment [1] in a line: Cytotoxicity in human […] cells assessed as inhibition of cell growth incubated for 72 hrs by MTT assay. It is filed as functional, cell-based.
Another experiment relates to Sclerotinia sclerotiorum. As to the kind of experiment: Fungicidal activity against Sclerotinia sclerotiorum grown under potato-saccharose agar assessed as inhibition of mycelial radial growth at 30 mg/l incubated for 72 hrs. It is filed as functional. To be noted: read-out: GI.
The subject of the next experiment is MCF7. As to the kind of experiment: Cytotoxicity in human MCF7 cells assessed as inhibition of cell growth incubated for 72 hrs by MTT assay. As to conditions: MCF7, 72 h. The experiment is classed as functional, cell-based.
The subject of a further experiment is RD. As to the kind of experiment: Cytotoxicity in human RD cells assessed as inhibition of cell growth incubated for 72 hrs by MTT assay. It is filed as functional, cell-based.
The test system of another experiment is Venturia inaequalis. As to the kind of experiment: Fungicidal activity against Venturia inaequalis grown under potato-saccharose agar assessed as inhibition of mycelial radial growth at 30 mg/l incubated for 72 hrs. To be noted: read-out: GI. It is filed as functional.
Experiment [2] relates to Jurkat. As to the kind of experiment: Induction of apoptosis in human Jurkat cells assessed as viable cells level at 5 uM incubated for 24 hrs by annexin V and Alexa Fluor 488 dye staining based flow cytometry (reference value: 95.27%). It is filed as functional.
The test system of experiment [3] is Jurkat. As to the kind of experiment: Induction of apoptosis in human Jurkat cells assessed as viable cells level at 5 uM incubated for 24 hrs by annexin V and Alexa Fluor 488 dye staining based flow cytometry (reference value: 92.408%). The experiment is classed as functional. (A flow cytometer gives signals particle by particle.)
For experiment [4], the system named is Jurkat. As to the kind of experiment: Induction of apoptosis in human Jurkat cells assessed as necrotic cells level at 5 uM incubated for 24 hrs by annexin V and Alexa Fluor 488 dye staining based flow cytometry (reference value: 2.04%). The experiment is classed as functional.
For experiment [5], the system named is Jurkat. As to the kind of experiment: Induction of apoptosis in human Jurkat cells assessed as damaged cells level at 5 uM incubated for 6 hrs by annexin V and Alexa Fluor 488 dye staining based flow cytometry (reference value: 0.07%). It is filed as functional.
The test system of experiment [6] is Jurkat. As to the kind of experiment: Induction of apoptosis in human Jurkat cells assessed as apoptotic cells level at 5 uM incubated for 24 hrs by annexin V and Alexa Fluor 488 dye staining based flow cytometry (reference value: 2.62%). The experiment is classed as functional.
In experiment [7] the test system is Jurkat. As to the kind of experiment: Induction of apoptosis in human Jurkat cells assessed as damaged cells level at 5 uM incubated for 24 hrs by annexin V and Alexa Fluor 488 dye staining based flow cytometry (reference value: 0.048%). It is filed as functional.
Experiment [8] relates to Jurkat. As to the kind of experiment: Induction of apoptosis in human Jurkat cells assessed as necrotic cells level at 5 uM incubated for 24 hrs by annexin V and Alexa Fluor 488 dye staining based flow cytometry (reference value: 2.616%). It is filed as functional.
Experiment [9] concerns Jurkat. As to the kind of experiment: Induction of apoptosis in human Jurkat cells assessed as apoptotic cells level at 5 uM incubated for 24 hrs by annexin V and Alexa Fluor 488 dye staining based flow cytometry (reference value: 4.928%). It is filed as functional.
Setting [10] is: Homo sapiens, HEK293, 72 h, read-out: IC50.

For `CCSC1=NC2C(N(CC)C(=O)N2CC)N1/N=C/C=C/c1ccccc1[N+](=O)[O-]` (stereo not drawn), the inhibition of growth at 30 µg/mL in the experiment with Rhizoctonia solani worked out at 44%; with Bipolaris sorokiniana, 39%; with Fusarium oxysporum, 12%; with Fusarium verticillioides it was 22%; in the experiment with Sclerotinia sclerotiorum it was 12%; with Venturia inaequalis it was 10%. Further, the IC50 with HEK293 (setting [10]) was 221 µM; in the experiment on A549, > 100 µM; in [1], 5.07 µM; in the experiment with MCF7 it was 30.7 µM; in the experiment on RD it was 2.45 µM.

For the compound `CCN1C(=O)N(CC)C2C1NC(=S)N2/N=C/C=C/c1ccccc1` (stereo not drawn), the inhibition of growth at 30 µg/mL was 42% with Rhizoctonia solani; 19% in the experiment with Bipolaris sorokiniana; 36% with Fusarium oxysporum; 41% in the experiment on Fusarium verticillioides; 3% in the experiment with Sclerotinia sclerotiorum; 12% with Venturia inaequalis. Further, the IC50 stood at 42.1 µM with HEK293 (setting [10]); 6.53 µM with A549; 4.38 µM in [1]; 36.1 µM with MCF7; 2.25 µM in the experiment with RD.

Turning to `CCN1C(=O)N(CC)C2C1N=C(SC)N2/N=C/C=C/c1ccccc1` (stereo not drawn), the inhibition of growth at 30 µg/mL in the experiment on Rhizoctonia solani came out at 60%; in the experiment on Bipolaris sorokiniana it was 49%; in the experiment on Fusarium oxysporum, 38%; in the experiment with Fusarium verticillioides it was 37%; with Sclerotinia sclerotiorum, 11%; in the experiment on Venturia inaequalis it was 13%. The IC50 in the experiment with HEK293 (setting [10]) was determined as 151 µM; in the experiment on A549, 21.4 µM; in experiment [1], 5.47 µM; with MCF7, 46.6 µM; in the experiment on RD, 24 µM.

As for `COc1ccccc1/C=C/C=N/N1C(=S)NC2C1N(C)C(=O)N2c1ccccc1` (stereo not drawn), the concentration for half-maximal inhibition (IC50) in the experiment on HEK293 (setting [10]) was 0.23 µM; in the experiment on A549, > 100 µM; in experiment [1], 0.012 µM; with MCF7, 0.26 µM; with RD it was 0.02 µM. For the same compound, the Viable cells in the experiment on Jurkat [2] was 94.37%. For the same compound, the Activity worked out at 56.076% in the experiment with Jurkat [3], 2.39% in the experiment with Jurkat [4], 0.14% in the experiment with Jurkat [5] and 0.136% in the experiment on Jurkat [7]. Moreover, the Apoptotic cells in the experiment on Jurkat [6] came out at 3.1%; with Jurkat [9], 26.98%. The Necrotic cells in the experiment with Jurkat [8] was 16.808%.

Turning to `CCN1C(=O)N(c2ccccc2)C2NC(=S)N(/N=C/C=C/c3ccccc3)C21` (stereo not drawn), the IC50 in the experiment with HEK293 (setting [10]) was 2.17 µM; in the experiment with A549 it was > 100 µM; in experiment [1], 1.46 µM; in the experiment with MCF7, 2.25 µM; with RD, 0.47 µM.

For the compound `CN1C(=O)N(C)C2C1NC(=S)N2/N=C/C=C/c1ccccc1[N+](=O)[O-]` (stereo not drawn), the IC50 entry with HEK293 (hek293) is “Not Active”; in the experiment with A549, 2.72 µM; in experiment [1] it was 3.76 µM; in the experiment on MCF7 it was 1.76 µM; with RD it was 32.4 µM. For the same compound, the Viable cells with Jurkat [2] is reported as 94.6%. The Activity amounted to 56.128% with Jurkat [3], 2.16% with Jurkat [4], 0.06% in the experiment on Jurkat [5] and 0.088% in the experiment with Jurkat [7]. For the same compound, the results for the Apoptotic cells in the experiment on Jurkat [6] and in the experiment on Jurkat [9] were 3.18% and 34.62%, respectively. For the same compound, in the experiment on Jurkat [8], the Necrotic cells is recorded as 9.164%.

As to `COc1cccc2c1C(=O)c1c(O)c3c(c(O)c1C2=O)C[C@@](O)(C(C)=O)C[C@@H]3O[C@H]1C[C@H](N)[C@H](O)[C@H](C)O1` [DAUNORUBICIN], the IC50 with HEK293 (setting [10]) amounted to 11.2 µM; in the experiment with A549, 0.51 µM; in [1], 0.21 µM; in the experiment with MCF7, 1.44 µM; with RD it was 2.45 µM.

Take `CCN1C(=O)N(c2ccccc2)C2NC(=S)N(/N=C/C=C/c3ccccc3OC)C21` (stereo not drawn): the inhibition of growth at 30 µg/mL in the experiment with Rhizoctonia solani is 17%; with Bipolaris sorokiniana, 0%; in the experiment with Fusarium oxysporum it was 1%; in the experiment with Fusarium verticillioides it was 19%; in the experiment on Sclerotinia sclerotiorum, 12%; in the experiment on Venturia inaequalis, 0%. For the same compound, the IC50 with HEK293 (setting [10]) was 57.5 µM; in the experiment with A549 it was > 100 µM; in [1], 2.12 µM; in the experiment on MCF7, 79.1 µM; in the experiment on RD it was 45.9 µM.

As for `CC[C@@]1(O)C(=O)OCc2c1cc1n(c2=O)Cc2cc3ccccc3nc2-1` [CAMPTOTHECIN], the IC50 is 54.7 µM in the experiment on HEK293 (setting [10]); 8.87 µM in the experiment on A549; 12.3 µM in experiment [1]; 13.6 µM with MCF7; 4.49 µM with RD. The Viable cells in the experiment with Jurkat [2] worked out at 63.71%. Besides, the Activity was determined as 37.372% in the experiment with Jurkat [3], 3.53% in the experiment on Jurkat [4], 0.12% in the experiment with Jurkat [5] and 0.132% in the experiment on Jurkat [7]. The values for the Apoptotic cells in the experiment with Jurkat [6] and in the experiment with Jurkat [9] were 32.64% and 36.412%, respectively. Moreover, the Necrotic cells in the experiment on Jurkat [8] came to 26.084%.

For the compound `CCN1C(=O)N(CC)C2C1NC(=S)N2/N=C/C=C/c1ccccc1OC` (stereo not drawn), the inhibition of growth at 30 µg/mL in the experiment with Rhizoctonia solani was 52%; in the experiment with Bipolaris sorokiniana it was 38%; in the experiment with Fusarium oxysporum, 21%; in the experiment on Fusarium verticillioides it was 37%; in the experiment with Sclerotinia sclerotiorum, 10%; in the experiment with Venturia inaequalis, 29%. In addition, the IC50 in the experiment with HEK293 (setting [10]) was 86.1 µM; in the experiment on A549, 0.61 µM; in experiment [1] it was 17.5 µM; with MCF7, > 100 µM; in the experiment on RD it was 0.25 µM. Further, the Viable cells in the experiment on Jurkat [2] is reported as 94.06%. In addition, the Activity is on record as 50.468% with Jurkat [3], 2.82% with Jurkat [4], 0.1% in the experiment with Jurkat [5] and 0.076% in the experiment on Jurkat [7]. Further, the Apoptotic cells stood at 3.02% in the experiment with Jurkat [6] and 36.66% with Jurkat [9]. Besides, in the experiment with Jurkat [8], the Necrotic cells is listed as 12.796%.

For `CCN1C(=O)N(CC)C2C1N=C(SC)N2/N=C/C=C/c1ccccc1OC` (stereo not drawn), the inhibition of growth at 30 µg/mL was found to be 65% with Rhizoctonia solani; 47% in the experiment with Bipolaris sorokiniana; 51% with Fusarium oxysporum; 42% in the experiment with Fusarium verticillioides; 23% in the experiment on Sclerotinia sclerotiorum; 20% in the experiment on Venturia inaequalis. For the same compound, the IC50 is 145 µM with HEK293 (setting [10]); 4.79 µM in the experiment with A549; 1.09 µM in [1]; 34.6 µM with MCF7; 7.97 µM in the experiment with RD.
